Counter-ions that a name gives are not always drawn. Like-named read-outs stand apart in the source and are kept apart here.
Tests used:
OC43 = assay: Drug screening: OC43 nucleoprotein staining in infected A549-mRuby cells; format: cell-based, human beta coronavirus OC43; conditions: for activity at 10 µM: Betacoronavirus 1, OC43, 96 h
Protocol: A549-mRuby cells were seeded (3,000 cells per well) in nine 384-well plates using Multidrop combi. Cells were seeded in a final volume of 30 μl with DMEM+10% BCS. The following day, 20 μl of OC43 were added (MOI 0.3) and incubated at 33° C., 5% CO2 for 1 hour. 50 nl from the Selleck FDA-approved drug library (cat #L1300, Selleck) were added (1:1,000 dilution). Two columns (32 wells) were left uninfected and two columns were treated with DMSO and virus (no drug control). Cells were imaged using the IncuCyte S3 to measure cell numbers at day 0. Cells were incubated for 4 days at 33° C., 5% CO2 and were stained for OC43 nucleoprotein. All the following steps were performed at room temperature. Cells were fixed in 50 μl 4% PFA/PBS for 15 min, blocked with 50 μl 10% BSA+0.5% Triton X-100 in PBS for 30 minutes, stained with 50 μl anti-OC43 (cat #MAB9013, Milipore) diluted 1:2,000 in 2% BSA+0.1% Triton X-100 in PBS for 1 hour, washed with 50 μl PBS three times, stained with anti-mouse-AlexaFluor488 diluted 1:1,000 in 2% BSA+0.1% Triton X-100 in PBS for 1 hour, washed with 50 μl PBS three times and imaged on the IncuCyte S3 (day 4). The screen was performed twice.
(§1) The following parameters were extracted from the images: number of cells at day 0, number of cells at day 4 and total OC43 staining intensity at day 4. For analysis, OC43 staining intensity was normalized to the number of cells in the well and further normalized to the mean of the no drug controls, which was set to 100. […] For each plate, a drug was considered as a putative hit if it reduced OC43 staining by over 3 standard deviations from the mean of the no drug controls. Drugs were considered hits if they were not toxic and reduced OC43 staining by over 3 standard deviations in both repeats.
(§2) A library of 1,900 clinically used drugs was screened, the drugs either approved for human use or having extensive safety data in humans (Phase 2 or 3 clinical trials), for their ability to inhibit OC43 infection of the human lung epithelial cell line A549 (expressing an H2B-mRuby nuclear reporter). One day after plating, cells were infected at an MOI of 0.3, incubated at 33° C. for 1 hour and drugs were added to a final concentration of 10 μM. Cells were then incubated at 33° C. for 4 days, fixed and stained for the presence of the viral nucleoprotein. The cells were imaged at day 0 (following drug addition) and day 4 (after staining) to determine the drugs effect on cell growth and OC43 infection.

A549-mRuby cells = assay: Drug screening: effect on cell growth (cell number day 4 / day 0); conditions: 10 μM drug; for Growth_1: number of cells at day 4 divided by number of cells at day 0 / toxic_1: repeat #1; for Growth_2: number of cells at day 4 divided by number of cells at day 0 / toxic_2: repeat #2
Protocol: A549-mRuby cells were seeded (3,000 cells per well) in nine 384-well plates using Multidrop combi. Cells were seeded in a final volume of 30 μl with DMEM+10% BCS. The following day, 20 μl of OC43 were added (MOI 0.3) and incubated at 33° C., 5% CO2 for 1 hour. 50 nl from the Selleck FDA-approved drug library (cat #L1300, Selleck) were added (1:1,000 dilution). Two columns (32 wells) were left uninfected and two columns were treated with DMSO and virus (no drug control). Cells were imaged using the IncuCyte S3 to measure cell numbers at day 0. Cells were incubated for 4 days at 33° C., 5% CO2 and were stained for OC43 nucleoprotein. All the following steps were performed at room temperature. […] The screen was performed twice.
as §1, §2

[1] = 10 μM drug, MOI 0.3, 4 days, OC43 staining normalized to no-drug controls, mean of the two screen repeats, read-out: OC43_mean
[2] = 10 μM drug, MOI 0.3, 4 days, normalized to no-drug controls in the same plate, repeat #1, read-out: OC43_1: % staining of OC43 in screen repeat #1
[3] = 10 μM drug, MOI 0.3, 4 days, normalized to no-drug controls in the same plate, repeat #2, read-out: OC43_2: % staining of OC43 in screen repeat #2

SMILES	hit_1 (OC43; 10 μM drug, repeat #1)	hit_2 (OC43; 10 μM drug, repeat #2)	activity at 10 µM (OC43; [1])	activity at 10 µM (OC43; [2])	activity at 10 µM (OC43; [3])	Growth_1: number of cells at day 4 divided by number of cells at day 0 (A549-mRuby cells)	toxic_1 (A549-mRuby cells)	Growth_2: number of cells at day 4 divided by number of cells at day 0 (A549-mRuby cells)	toxic_2 (A549-mRuby cells)	activity at 10 µM (OC43; read-out: OC43_mean)	activity at 10 µM (OC43; read-out: OC43_1: % staining of OC43 in screen repeat #1)	activity at 10 µM (OC43; read-out: OC43_2: % staining of OC43 in screen repeat #2)
C#C[C@]1(O)CC[C@H]2[C@@H]3CCC4=CC(=O)CC[C@@H]4[C@H]3C(=C)C[C@@]21CC [Etonogestrel]	1	1	44.3%	47.8%	40.7%	4.3	0	4.3	0			
Cc1cc(C(C)(C)C)cc(C)c1CC1=NCCN1 [Xylometazoline HCl]	1	1	49.7%	54%	45.4%	5.4	0	5.7	0			
COc1cc(N)c(Cl)cc1C(=O)NC1CCN(CCCOc2ccc(F)cc2)CC1OC (stereo not drawn) [Cisapride]	1	1	25.3%	28.5%	22.1%	4.1	0	4.5	0			
CCCC1O[C@@H]2C[C@H]3[C@@H]4CCC5=CC(=O)C=C[C@]5(C)[C@H]4[C@@H](O)C[C@]3(C)[C@]2(C(=O)CO)O1 (stereo partly drawn) [Budesonide]	1	1	28.8%	20.8%	36.9%	3.9	0	4.0	0			
CN(C)CCCC1(c2ccc(F)cc2)OCc2cc(C#N)ccc21 (stereo not drawn) [Citalopram HBr]	1	1		20.4%	44.4%	5.1	0	5.1	0	32.4%		
CN[C@H]1C(=O)N[C@@H]2Cc3ccc(cc3)Oc3cc4cc(c3O[C@@H]3O[C@H](C(=O)O)[C@@H](O)[C@H](O)[C@H]3NC(=O)CCCCCCCCC(C)C)Oc3ccc(cc3Cl)[C@@H](O)[C@@H]3NC(=O)[C@H](NC(=O)[C@@H]4NC(=O)[C@@H](NC2=O)c2cc(cc(O)c2Cl)Oc2cc1ccc2O)c1ccc(O)c(c1)-c1c(O[C@H]2O[C@H](CO)[C@@H](O)[C@H](O)[C@@H]2O)cc(O)cc1[C@@H](C(=O)NCCCN(C)C)NC3=O [Dalbavancin]	1	1				5.8	0	6.2	0	32.5%	25.7%	39.2%
COCCCC/C(=N\OCCN)c1ccc(C(F)(F)F)cc1 [Fluvoxamine maleate]	1	1		22.7%	38.9%	5.4	0	4.5	0	30.8%		
